What was measured:
APP = assay: Expression of the precursor APP in brain of 5XFAD mice; type: in vivo, mouse
Description: (§1) Western blot analyses. Cell or mouse muscle and brain extracts were prepared in lysis buffer containing 50 mM Tris (pH 7.4), 150 mM NaCl, 1 mM EDTA, 1% Triton X-100, halt proteinase inhibitor cocktail (ThermoFisher Scientific) and halt phosphatase inhibitor cocktail (ThermoFisher Scientific), and subjected to western blot analysis with anti-LC3 (Novus Biologicals, NB100-2220), anti-SQSTM 1 (Abnova, H00008878-M01), anti-Af342 (Invitrogen; 700254), anti-APP (Biolegend; 803001), HRP-conjugated GFP antibody (Santa Cruz Biotechnology, sc9996), anti-HA (Cell Signaling Technology, C29F4), anti-ATG7 (Sigma Aldrich; A2856), anti-LDLR (Abeam, ab52818), anti-LRP 1 (Abeam, ab92544), and anti-ACTB/f3-actin-HRP (Santa Cruz Biotechnology, sc47778 HRP) antibodies. The band intensity was analyzed using the ImageJ software.

Hela cells = assay: Western blot detection of LC3 and p62 in Hela cells; type: cell-based
Description: as §1

LC3 and p62/SQSTM1 = assay: Western blot detection of LC3 and p62/SQSTM1 in mouse tissues; type: in vivo; details: for LC3-II conversion / levels of p62 (SQSTM1): mouse brain
Description: WAT, white adipose tissue; BAT, brown adipose tissue.
Autophagy analyses. For assessment of autophagy in vivo, 8-week old male WT and Becn 1FA/FA mice crossed to GFP-LC3 mice were exercised for 90 minutes, or starved for 48 h, and then anaesthetized by isoflurane and perfused with 4% PFA Brain and muscle samples were fixed in 4% PFA overnight, 15% sucrose for 4 h and 30% sucrose overnight before frozen sections were prepared. The number of GFP-LC3 puncta per unit area of tissue was quantified by fluorescence microscopy. Autophagy in vivo was also analyzed by western blot analysis of brain tissue extracts with antibodies against LC3 and p62/SQSTM1 (see below for details).
as §1

CB1R = assay: Brain CB1R (CNR1) level by Western blot after chronic WIN; type: in vivo, mouse; details: mice concurrently treated with daily WIN for 14 d
Description: (§2) To investigate whether restoration of CB1R signaling underlies the behavioral regulation by autophagy activation, the level and functionality of CB1R in mouse brain after co-administration of chronic cannabinoids and autophagy inducers were analyzed. […] To determine whether the increased level of CB1R represents CB1R re-sensitization in the brain, the agonist-induced phosphorylation of signaling kinases downstream of CB1R after chronic WIN exposure were analyzed.

amyloid plaques = assay: Amyloid plaques stained by thioflavin S or Aβ42 antibody in brain of 5XFAD mice; type: in vivo, mouse
Description: Scale bar: 500 μm. Results represent mean±s.e.m. N=6-8. *, P<0.05; **, P<0.01, t test.
Immunofluorescence microscopy. Paraformaldehyde-fixed brain tissues were sectioned at 30 μm thickness. Free-floating sagittal sections were immunostained with 1% thioflavin S (Sigma-Aldrich, 230456) for 20 minutes. Additional sections were immunostained with Aβ (Invitrogen, 700254, 1:500) and Alexa Fluro 594 goat anti rabbit (ThermoFisher Scientific, Al 1012). Sections were mounted on slides with mounting medium containing DAPI (Vectashield) and then analyzed by fluorescence microscopy under the 10× objective.

[1] = Brain penetration / pharmacokinetics study; details: for brain penetration: mouse, in vivo
HTT aggregates = assay: Fluorescence imaging of HTT inclusions in HeLa cells; type: cell-based
Description: Blue, DAPI. Results represent mean±s.e.m. Scale bar: 20 μm. Statistics compare each value to the one under the “-” condition. **, P<0.01; ***, P<0.001; NS, not significant, t test.
ML246 promotes the removal of intracellular aggregates formed by polyglutamine (polyQ)-expansion proteins. HeLa cell lines stably expressing tetracycline-repressible expanded polyQ-repeat protein HTT (huntingtin) was used as a model, HTT65Q and HTT103Q. In contrast to the HTT protein with the normal number of glutamine repeats (HTT25Q), HTT65Q and HTT103Q formed insoluble polyQ aggregates larger than 0.2-μm diameter, which can be detected by filter trap assay. […] Fluorescence imaging further confirmed that ML246 administration decreased the number of cells positive for HTT aggregates, which is also in an ATG7-dependent manner (FIG. S6B).
Accordingly, whether Rg2 affects the clearance of proteinaceous inclusions in vitro was next determined, using HeLa cell lines expressing tetracycline-repressible expanded polyglutamine (polyQ)-repeat protein HTT (huntingtin), HTT65Q and HTT103Q. Unlike the HTT protein with the normal number of glutamine repeats (HTT25Q), HTT65Q and HTT103Q formed insoluble polyQ aggregates larger than 0.2-μm diameter, which were detected by filter trap assays (FIG. 5A).

5XFAD mice = assay: Morris water maze test of 5XFAD mice; type: in vivo, mouse
Description: Escape latency and total distance traveled in visible platform test and hidden platform test are shown. N=10-11. Results represent mean±s.e.m. Two-way repeated measures ANOVA.
Escape latency and total distance traveled in visible platform test and hidden platform test are shown. Results represent mean±s.e.m. Statistics were analyzed by the IBM SPSS Statistics Tools comparing differences between 2 curves.
Morris water maze testing. For animal behavior, 6-month old mice were tested. The Morris water maze test consists of two sections: the visible platform testing and hidden platform testing. During the tests, mice were placed in the water tank filled with opaque water (maintained at 25° C.), with their heads facing toward the tank wall. In the visible platform section, a black platform extending 2 cm above the water level was used for these trials. For each trial, the platform was randomly positioned, and the mouse was placed in the tank at different start positions. The trial was stopped after the mouse found and climbed onto the platform, and the escape latency was recorded. […] Mice were tested for 4 days with eight trials per day. In the hidden platform section, a transparent platform underneath the water level was used instead of the black one during all trials, mice were tested with a fixed platform location over 5 days period with six trials per day, and they were allowed to search the platform in 60 s. In the tests, two parameters were evaluated: the trail duration (s) and distance to the platform (m).

CB1R signaling = CB1R signaling in brain (phosphorylation of MEK and JNK) after chronic WIN; type: in vivo, mouse; details: repeated WIN dosage 14 d, then acute WIN 1 h
Description: WT mice were treated with either daily WIN or vehicle for 14 d, and then subject to an acute dosage of WIN 1 h prior to collection of brain samples.
as §2

WT mice = assay: Analgesic tolerance test during chronic WIN treatment; type: in vivo, mouse; details: WT mice, co-treatment with daily WIN for 14 d, compared with vehicle
Description: Briefly, mice were injected with WIN for 14 d, and analgesic tolerance was measured without WIN treatment on day 0, and after 1-h WIN treatment on day 1 and day 14.
There were no genotype differences either in basal pain sensitivity to infrared heat-generated pain (agonist-free, day 0) (FIG. 2C), or in analgesic effects of acute WIN treatment prior to chronic WIN administration (day 1) (FIG. 2D).

[2] = liver, muscle, brain, heart, white and brown adipose tissue

SMILES | expression of the precursor APP (APP; ML246 for 5 weeks) | levels of p62 (SQSTM1) (Hela cells) | LC3-II conversion (LC3 and p62/SQSTM1) | levels of p62 (SQSTM1) (LC3 and p62/SQSTM1) | levels of CB1R (CNR1) in the brain (CB1R) | amyloid plaques (amyloid plaques; 5XFAD mice, 5 weeks of ML246) | brain penetration [1] | number of cells positive for HTT aggregates (HTT aggregates; ML246) | performance during the hidden platform trials (5XFAD mice; 6-month old 5XFAD mice, ML246 daily for 5 weeks) | CB1R (CNR1) signaling: phosphorylation of MEK and JNK (CB1R signaling) | pain-relieving effect of WIN on day 14 (WT mice) | expression of the precursor APP (APP; Rg2 for 16 weeks) | LC3-I to LC3-II conversion (LC3 and p62/SQSTM1; [2]) | levels of SQSTM1 (LC3 and p62/SQSTM1; [2]) | number of amyloid plaques (amyloid plaques; Rg2-treated 5XFAD mice, thioflavin or Aβ42 antibody) | brain level ([1]; 24 h postinjection) | time of peak brain level after injection ([1]; brain) [min] | number of cells positive for HTT aggregates (HTT aggregates; Rg2) | escape latency and distance, hidden platform (5XFAD mice; 5XFAD mice, Rg2 for 4 months) | escape latency or distance, visible platform (5XFAD mice; WT, vehicle-treated and Rg2-treated mice)
N=c1c2c(-c3ccccc3)c(-c3ccccc3)n(Cc3ccccc3)c2ncn1[C@H]1CC[C@H](O)CC1 [ML246] | not affected | decreased | not detect significant changes | decreased | higher levels | trend of plaque reduction | can pass the blood-brain barrier | decreased | improved the performance | rescued | potently rescued | – | – | – | – | – | – | – | – | –
CC(C)=CCC[C@](C)(O)[C@H]1CC[C@]2(C)[C@@H]1[C@H](O)C[C@@H]1[C@@]3(C)CC[C@H](O)C(C)(C)[C@@H]3[C@@H](O[C@@H]3O[C@H](CO)[C@@H](O)[C@H](O)[C@H]3O[C@@H]3O[C@@H](C)[C@H](O)[C@@H](O)[C@H]3O)C[C@]12C [Rg2, ginsenoside Rg2] | – | decreased | not detect significant changes | decreased | higher levels | – | able to enter the brain | – | – | rescued | potently rescued | remained unaffected | increased | decreased levels | significantly fewer number | still detectable | 15 | reduced | significantly improved performance | no significant difference
